# Source: ChEMBL document CHEMBL1154618, “Agonist vs antagonist behavior of delta opioid peptides containing novel phenylalanine analogues in place of Tyr(1)” (J Med Chem, 2009)
# pIC50, pKi: −log10 of the molar value. Activity calls are given as the source filed them. The rule behind the calls is not given here. Non-standard residues stand in square brackets, D forms with d. Residues, ends and D or L forms follow the SMILES beside them. Phe(2,6-Me2,4-CONH2) = Cc1cc(C(N)=O)cc(C)c1C[C@H](N)C(=O)O; Dmt = Cc1cc(O)cc(C)c1C[C@H](N)C(=O)O; Tic = O=C(O)[C@@H]1Cc2ccccc2CN1
# Key:
# [1] = target: Kappa-type opioid receptor (Cavia porcellus, UniProt P41144); assay: Displacement of [3H]U69-593 from kappa opioid receptor in guinea pig brain membrane; type: cell membranes
# Chain of Kappa-type opioid receptor (P41144 whole entry): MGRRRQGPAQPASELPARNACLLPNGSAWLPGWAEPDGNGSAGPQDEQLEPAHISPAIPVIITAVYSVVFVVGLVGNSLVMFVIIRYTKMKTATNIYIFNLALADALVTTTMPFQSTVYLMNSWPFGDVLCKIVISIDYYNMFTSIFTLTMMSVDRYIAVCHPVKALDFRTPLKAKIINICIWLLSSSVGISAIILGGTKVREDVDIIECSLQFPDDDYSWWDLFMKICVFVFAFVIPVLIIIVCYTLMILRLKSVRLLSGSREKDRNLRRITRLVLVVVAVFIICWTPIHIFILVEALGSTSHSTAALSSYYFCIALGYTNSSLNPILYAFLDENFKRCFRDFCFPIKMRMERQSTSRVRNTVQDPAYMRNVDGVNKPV
# Mu-type opioid receptor [2] = target: Mu-type opioid receptor (Cavia porcellus, UniProt P97266); assay: Agonist activity at mu opioid receptor in guinea pig ileum assessed as effect on muscle contraction; type: functional, tissue-based; details: for pIC50: read-out: IC50
# Chain of Mu-type opioid receptor (Cavia porcellus, UniProt P97266) (P97266 whole entry): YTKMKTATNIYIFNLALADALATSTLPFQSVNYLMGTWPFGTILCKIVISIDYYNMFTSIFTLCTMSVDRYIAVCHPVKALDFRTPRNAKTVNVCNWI
# Mu-type opioid receptor [3] = target: Mu-type opioid receptor (Rattus norvegicus, UniProt P33535); assay: Displacement of [3H]DAMGO from mu opioid receptor in rat brain membrane; type: cell membranes
# Chain of Mu-type opioid receptor (Rattus norvegicus, UniProt P33535) (P33535 whole entry): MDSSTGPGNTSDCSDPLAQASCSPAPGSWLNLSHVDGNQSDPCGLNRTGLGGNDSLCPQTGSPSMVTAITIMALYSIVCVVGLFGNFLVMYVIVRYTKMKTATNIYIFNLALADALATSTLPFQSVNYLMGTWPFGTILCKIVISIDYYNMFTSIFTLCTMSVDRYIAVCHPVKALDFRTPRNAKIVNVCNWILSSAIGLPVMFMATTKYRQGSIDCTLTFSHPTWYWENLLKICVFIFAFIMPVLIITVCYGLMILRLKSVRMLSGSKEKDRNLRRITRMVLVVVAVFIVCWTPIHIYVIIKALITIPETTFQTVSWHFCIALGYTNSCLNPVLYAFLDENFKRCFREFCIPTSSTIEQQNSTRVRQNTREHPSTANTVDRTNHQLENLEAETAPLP
# [4] = target: Mu-type opioid receptor (Cavia porcellus) (UniProt P97266); assay: Antagonist activity at mu opioid receptor in guinea pig ileum assessed as inhibition of […]; type: functional, tissue-based
# Chain of Mu-type opioid receptor (Cavia porcellus) (P97266 whole entry): as the sequence (P97266 whole entry) above
# [5] = target: Delta-type opioid receptor (Mus musculus) (UniProt P32300); assay: Antagonist activity at delta opioid receptor in mouse vas deferens assessed as inhibition of DPDPE-stimulated muscle contraction; type: functional, tissue-based
# Chain of Delta-type opioid receptor (Mus musculus) (P32300 whole entry): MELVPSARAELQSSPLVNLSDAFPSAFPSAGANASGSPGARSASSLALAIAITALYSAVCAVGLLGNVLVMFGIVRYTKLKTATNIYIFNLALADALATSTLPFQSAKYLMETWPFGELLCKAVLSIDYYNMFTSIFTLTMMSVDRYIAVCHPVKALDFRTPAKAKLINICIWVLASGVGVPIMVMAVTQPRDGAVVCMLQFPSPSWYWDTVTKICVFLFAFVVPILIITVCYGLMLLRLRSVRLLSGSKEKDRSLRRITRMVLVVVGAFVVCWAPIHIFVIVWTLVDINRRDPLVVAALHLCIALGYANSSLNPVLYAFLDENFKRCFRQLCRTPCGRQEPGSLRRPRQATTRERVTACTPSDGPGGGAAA
# [6] = target: Delta-type opioid receptor (Rattus norvegicus, UniProt P33533); assay: Displacement of [3H]DSLET from delta opioid receptor in rat brain membrane; type: cell membranes
# Chain of Delta-type opioid receptor (P33533 whole entry): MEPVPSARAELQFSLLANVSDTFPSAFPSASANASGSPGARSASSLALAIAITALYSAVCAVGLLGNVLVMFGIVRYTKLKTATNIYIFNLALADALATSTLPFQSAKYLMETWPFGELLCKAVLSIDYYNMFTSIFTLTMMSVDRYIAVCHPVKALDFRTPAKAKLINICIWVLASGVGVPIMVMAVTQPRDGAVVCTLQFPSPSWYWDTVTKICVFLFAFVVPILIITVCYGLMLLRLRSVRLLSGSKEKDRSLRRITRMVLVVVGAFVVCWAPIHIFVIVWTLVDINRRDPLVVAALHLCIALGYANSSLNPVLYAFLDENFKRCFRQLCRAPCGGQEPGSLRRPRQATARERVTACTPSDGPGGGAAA
SMILES,pKi [1],pIC50 (Mu-type opioid receptor [2]),pKi (Mu-type opioid receptor [3]),IC50 (Mu-type opioid receptor [2]),Ke [4],Ke [5],pKi [6]
N[C@@H](Cc1ccc(O)cc1)C(=O)N1Cc2ccccc2C[C@H]1C(=O)N[C@@H](Cc1ccccc1)C(=O)N[C@@H](Cc1ccccc1)C(=O)O (H-Y[Tic]FF-OH),< 6.00,< 5.00,,,,,
Cc1cc(O)cc(C)c1C[C@H](N)C(=O)N1Cc2ccccc2C[C@H]1C(=O)O (H-[Dmt]-[Tic]-OH),< 6.00,,5.87,Not Active,inactive,,
Cc1cc(C(=O)NCCc2ccc(-c3ccccc3)cc2)cc(C)c1C[C@H](N)C(=O)N1Cc2ccccc2C[C@H]1C(=O)O,,,,,,1.76 nM,
N[C@@H](Cc1ccc(O)cc1)C(=O)N1Cc2ccccc2C[C@H]1C(=O)O (H-Tyr-[Tic]-OH),< 5.00,,< 6.00,Not Active,inactive,263 nM,6.62
"Cc1cc(C(N)=O)cc(C)c1C[C@H](N)C(=O)N1Cc2ccccc2C[C@H]1C(=O)N[C@@H](Cc1ccccc1)C(=O)N[C@@H](Cc1ccccc1)C(=O)O (H-[Phe(2,6-Me2,4-CONH2)][Tic]FF-OH)",< 6.00,,,,,0.627 nM,9.30
Cc1cc(O)cc(C)c1C[C@H](N)C(=O)N1Cc2ccccc2C[C@H]1C(=O)N[C@@H](Cc1ccccc1)C(=O)N[C@@H](Cc1ccccc1)C(=O)O (H-[Dmt][Tic]FF-OH),< 6.00,6.11,,,,0.196 nM,
N[C@@H](Cc1ccc(C(=O)NCCc2ccc(-c3ccccc3)cc2)cc1)C(=O)N1Cc2ccccc2C[C@H]1C(=O)N[C@@H](Cc1ccccc1)C(=O)O,,,,,,18.7 nM,
N[C@@H](Cc1ccc(C(=O)NCCc2ccc(-c3ccccc3)cc2)cc1)C(=O)N1Cc2ccccc2C[C@H]1C(=O)O,,,,,,17.8 nM,
